Data from ChEMBL document CHEMBL6092180 (Eur J Med Chem, 2024).
≈ marks a conversion by molar mass, not a printed value.

What was measured:
Assay type in all cases: functional
[1] = system: Candida albicans; assay: Antifungal activity against Candida albicans SC5314 assessed as inhibition of fungal growth by CLSI M27-A3 guidelines based method
[2] = system: Candida albicans; assay: Antifungal activity against Candida albicans GIM 2.194 assessed as inhibition of fungal growth by CLSI M27-A3 guidelines based method
[3] = system: Candida tropicalis; assay: Antifungal activity against Candida tropicalis GIM 2.183 assessed as inhibition of fungal growth by CLSI M27-A3 guidelines based method
[4] = system: Candida parapsilosis; assay: Antifungal activity against Candida parapsilosis GIM 2.190 assessed as inhibition of fungal growth by CLSI M27-A3 guidelines based method; settings: Lodderomyces parapsilosis
[5] = system: Nakaseomyces glabratus; assay: Antifungal activity against Candida glabrata assessed as inhibition of fungal growth by CLSI M27-A3 guidelines based method
[6] = system: Pichia kudriavzevii; assay: Antifungal activity against Candida krusei GIM 2.1 assessed as inhibition of fungal growth by CLSI M27-A3 guidelines based method
[7] = system: Cryptococcus neoformans; assay: Antifungal activity against Cryptococcus neoformans CGMCC 2.3161 assessed as inhibition of fungal growth by CLSI M27-A3 guidelines based method

SMILES	MIC80 [1]	MIC80 [2]	MIC80 [3]	MIC80 [4]	MIC80 [5]	MIC80 [6]	MIC80 [7]
CN(Cc1ccc(C#Cc2ccc(Cl)cc2F)cc1)CC(O)(Cn1cncn1)c1ccc(F)cc1F (stereo unspecified)	0.006 µg/mL (≈ 0.0117 µM)	0.006 µg/mL (≈ 0.0117 µM)	0.006 µg/mL (≈ 0.0117 µM)	0.006 µg/mL (≈ 0.0117 µM)	0.03 µg/mL (≈ 0.0587 µM)	0.01 µg/mL (≈ 0.0196 µM)	0.025 µg/mL (≈ 0.0489 µM)
CN(Cc1ccc(C#Cc2ccc(Br)cc2)cc1)CC(O)(Cn1cncn1)c1ccc(F)cc1F (stereo unspecified)	0.013 µg/mL (≈ 0.0242 µM)	0.013 µg/mL (≈ 0.0242 µM)	0.025 µg/mL (≈ 0.0465 µM)	0.006 µg/mL (≈ 0.0112 µM)	0.03 µg/mL (≈ 0.0558 µM)	0.01 µg/mL (≈ 0.0186 µM)	0.013 µg/mL (≈ 0.0242 µM)
CN(Cc1ccc(C#Cc2ccccn2)cc1)CC(O)(Cn1cncn1)c1ccc(F)cc1F (stereo unspecified)	0.013 µg/mL (≈ 0.0283 µM)	0.25 µg/mL (≈ 0.544 µM)	0.013 µg/mL (≈ 0.0283 µM)	0.05 µg/mL (≈ 0.109 µM)	1.6 µg/mL (≈ 3.48 µM)	0.4 µg/mL (≈ 0.871 µM)	0.2 µg/mL (≈ 0.435 µM)
CN(Cc1ccc(C#Cc2cc(F)c(Cl)cc2F)cc1)CC(O)(Cn1cncn1)c1ccc(F)cc1F (stereo unspecified)	0.006 µg/mL (≈ 0.0113 µM)	0.006 µg/mL (≈ 0.0113 µM)	0.006 µg/mL (≈ 0.0113 µM)	0.006 µg/mL (≈ 0.0113 µM)	0.01 µg/mL (≈ 0.0189 µM)	0.01 µg/mL (≈ 0.0189 µM)	0.025 µg/mL (≈ 0.0473 µM)
C[C@@H](N(C)Cc1ccc(C#Cc2ccc(C(F)(F)F)cc2)cc1)[C@](O)(Cn1cncn1)c1ccc(F)cc1F	0.025 µg/mL (≈ 0.0463 µM)	0.05 µg/mL (≈ 0.0925 µM)	0.013 µg/mL (≈ 0.0241 µM)	0.013 µg/mL (≈ 0.0241 µM)	0.05 µg/mL (≈ 0.0925 µM)	0.1 µg/mL (≈ 0.185 µM)	0.05 µg/mL (≈ 0.0925 µM)
CN(Cc1ccc(C#Cc2ccc(C(C)(C)C)cc2)cc1)CC(O)(Cn1cncn1)c1ccc(F)cc1F (stereo unspecified)	0.025 µg/mL (≈ 0.0486 µM)	0.025 µg/mL (≈ 0.0486 µM)	0.025 µg/mL (≈ 0.0486 µM)	0.013 µg/mL (≈ 0.0253 µM)	0.8 µg/mL (≈ 1.55 µM)	0.4 µg/mL (≈ 0.777 µM)	0.05 µg/mL (≈ 0.0972 µM)
C[C@@H](N(C)Cc1ccc(C#Cc2ccc(OC(F)(F)F)cc2)cc1)[C@](O)(Cn1cncn1)c1ccc(F)cc1F	0.05 µg/mL (≈ 0.0898 µM)	0.05 µg/mL (≈ 0.0898 µM)	0.013 µg/mL (≈ 0.0234 µM)	0.013 µg/mL (≈ 0.0234 µM)	0.03 µg/mL (≈ 0.0539 µM)	0.8 µg/mL (≈ 1.44 µM)	0.05 µg/mL (≈ 0.0898 µM)
CN(Cc1ccc(C#Cc2ccc(O)cc2)cc1)CC(O)(Cn1cncn1)c1ccc(F)cc1F (stereo unspecified)	0.013 µg/mL (≈ 0.0274 µM)	0.025 µg/mL (≈ 0.0527 µM)	0.025 µg/mL (≈ 0.0527 µM)	0.025 µg/mL (≈ 0.0527 µM)	3.2 µg/mL (≈ 6.74 µM)	3.2 µg/mL (≈ 6.74 µM)	0.2 µg/mL (≈ 0.421 µM)
C[C@@H](N(C)Cc1ccc(C#Cc2ccc(C(C)(C)C)cc2)cc1)[C@](O)(Cn1cncn1)c1ccc(F)cc1F	1.6 µg/mL (≈ 3.03 µM)	3.2 µg/mL (≈ 6.05 µM)	1.6 µg/mL (≈ 3.03 µM)	1.6 µg/mL (≈ 3.03 µM)	3.2 µg/mL (≈ 6.05 µM)	3.2 µg/mL (≈ 6.05 µM)	3.2 µg/mL (≈ 6.05 µM)
CN(Cc1ccc(C#Cc2ccc(OC(F)(F)F)cc2)cc1)CC(O)(Cn1cncn1)c1ccc(F)cc1F (stereo unspecified)	0.025 µg/mL (≈ 0.0461 µM)	0.013 µg/mL (≈ 0.024 µM)	0.013 µg/mL (≈ 0.024 µM)	0.013 µg/mL (≈ 0.024 µM)	0.2 µg/mL (≈ 0.369 µM)	0.2 µg/mL (≈ 0.369 µM)	0.05 µg/mL (≈ 0.0922 µM)
CC(C)c1ccc(C#Cc2ccc(CN(C)CC(O)(Cn3cncn3)c3ccc(F)cc3F)cc2)cc1 (stereo unspecified)	0.013 µg/mL (≈ 0.026 µM)	0.025 µg/mL (≈ 0.0499 µM)	0.013 µg/mL (≈ 0.026 µM)	0.05 µg/mL (≈ 0.0999 µM)	0.1 µg/mL (≈ 0.2 µM)	0.2 µg/mL (≈ 0.4 µM)	0.025 µg/mL (≈ 0.0499 µM)
CN(Cc1ccc(C#Cc2ccc([N+](=O)[O-])cc2F)cc1)CC(O)(Cn1cncn1)c1ccc(F)cc1F (stereo unspecified)	0.006 µg/mL (≈ 0.0115 µM)	0.006 µg/mL (≈ 0.0115 µM)	0.006 µg/mL (≈ 0.0115 µM)	0.006 µg/mL (≈ 0.0115 µM)	0.03 µg/mL (≈ 0.0575 µM)	0.05 µg/mL (≈ 0.0959 µM)	0.025 µg/mL (≈ 0.0479 µM)
CN(Cc1ccc(C#Cc2ccc(N)cc2)cc1)CC(O)(Cn1cncn1)c1ccc(F)cc1F (stereo unspecified)	0.2 µg/mL (≈ 0.422 µM)	0.05 µg/mL (≈ 0.106 µM)	0.2 µg/mL (≈ 0.422 µM)	0.05 µg/mL (≈ 0.106 µM)	3.2 µg/mL (≈ 6.76 µM)	0.8 µg/mL (≈ 1.69 µM)	0.4 µg/mL (≈ 0.845 µM)
CN(Cc1ccc(C#Cc2ccc(OCc3ccccc3)cc2)cc1)CC(O)(Cn1cncn1)c1ccc(F)cc1F (stereo unspecified)	0.05 µg/mL (≈ 0.0886 µM)	0.013 µg/mL (≈ 0.023 µM)	0.05 µg/mL (≈ 0.0886 µM)	0.2 µg/mL (≈ 0.354 µM)	0.1 µg/mL (≈ 0.177 µM)	0.1 µg/mL (≈ 0.177 µM)	0.1 µg/mL (≈ 0.177 µM)
CN(Cc1ccc(C#Cc2ccc(F)cc2)cc1)CC(O)(Cn1cncn1)c1ccc(F)cc1F (stereo unspecified)	0.006 µg/mL (≈ 0.0126 µM)	0.006 µg/mL (≈ 0.0126 µM)	0.013 µg/mL (≈ 0.0273 µM)	0.006 µg/mL (≈ 0.0126 µM)	0.03 µg/mL (≈ 0.063 µM)	0.05 µg/mL (≈ 0.105 µM)	0.013 µg/mL (≈ 0.0273 µM)
CN(Cc1ccc(C#Cc2cccc(I)c2)cc1)CC(O)(Cn1cncn1)c1ccc(F)cc1F (stereo unspecified)	0.05 µg/mL (≈ 0.0856 µM)	0.05 µg/mL (≈ 0.0856 µM)	0.025 µg/mL (≈ 0.0428 µM)	0.025 µg/mL (≈ 0.0428 µM)	3.2 µg/mL (≈ 5.48 µM)	3.2 µg/mL (≈ 5.48 µM)	0.025 µg/mL (≈ 0.0428 µM)
Cc1ccc(C#Cc2ccc(CN(C)CC(O)(Cn3cncn3)c3ccc(F)cc3F)cc2)cc1 (stereo unspecified)	0.013 µg/mL (≈ 0.0275 µM)	0.013 µg/mL (≈ 0.0275 µM)	0.013 µg/mL (≈ 0.0275 µM)	0.013 µg/mL (≈ 0.0275 µM)	0.4 µg/mL (≈ 0.846 µM)	0.2 µg/mL (≈ 0.423 µM)	0.013 µg/mL (≈ 0.0275 µM)
CN(Cc1ccc(C#Cc2ccccc2I)cc1)CC(O)(Cn1cncn1)c1ccc(F)cc1F (stereo unspecified)	0.013 µg/mL (≈ 0.0222 µM)	0.006 µg/mL (≈ 0.0103 µM)	0.006 µg/mL (≈ 0.0103 µM)	0.006 µg/mL (≈ 0.0103 µM)	1.6 µg/mL (≈ 2.74 µM)	0.8 µg/mL (≈ 1.37 µM)	0.025 µg/mL (≈ 0.0428 µM)
